Test results as given in ChEMBL document CHEMBL1155743, “New bromoditerpenes from the red alga Sphaerococcus coronopifolius” (J Nat Prod, 2001).
≈ marks a conversion by molar mass, not a printed value.

What was measured:
Staphylococcus aureus = assay: Antibacterial activity against Staphylococcus aureus ATCC 6538 by disk diffusion assay; format: functional
Plasmodium falciparum = assay: Antimalarial activity against chloroquine-resistant Plasmodium falciparum FCB1 in human blood by [3H]hypoxanthine uptake; format: functional, organism-based

MIC (Staphylococcus aureus) | Structure (SMILES) | IC50 (Plasmodium falciparum)
0.146 µM (≈ 0.0701 µg/mL) | CC(C)[C@@H]1C=C[C@H](O)[C@H]2[C@@H]3[C@](C)(O)[C@@H](O)C[C@H](Br)[C@@]3(C)CC[C@@]21CBr | 
0.104 µM (≈ 0.0497 µg/mL) | CC(C)[C@@H]1C=CC(=O)[C@H]2[C@@H]3[C@](C)(O)[C@@H](O)C[C@H](Br)[C@@]3(C)CC[C@]12CBr [BROMOSPHAERONE] | 
 | CC(C)[C@@H]1CC=C[C@H]2[C@H]3[C@@](C)(C=CC(=O)[C@@]3(C)O)CC[C@]12CBr [SPHAEROCOCCENOL A] | 1000 nM
